Where two headings read alike, the source gives them in different places.
Experiments:
[1] = test system: Ba/F3 KIF5B-RET cells; assay: Ba/F3 KIF5B-RET cell inhibition (CellTiter-Glo); type: cell-based; conditions: Mus musculus, BaF3, 72 h
Protocol: (§1) Activity Experiment 3: Inhibition of Ba/F3 KIF5B-RET Cells by Prepared Compounds Ba/F3 KIF5B-RET, Ba/F3KIF5B-RET-V804M, Ba/F3 RET-M918T and Ba/F3 KIF5B-RET-G810R cells growing in log phase were harvested and counted using a […]. The cell viability was determined by the trypan blue exclusion method, and the cell viability was kept over 90%. The cell concentration was adjusted, and 90 μL of the cell suspension was added to a 96-well plate. The cells in the 96-well plate were incubated overnight at 37° C. with 5% CO2 and 95% humidity. Corresponding gradient concentrations of drug solutions (the maximum concentration was 1000 nM) were added to the 96-well plate inoculated with cells at 10 μL/well. Triplicate wells were set per drug concentration, and the final concentration of DMSO was 0.1%. The drug-treated cells in the 96-well plate were incubated for another 72 h at 37° C. with 5% CO2 and 95% humidity. After the drug treatment was completed, 100 μL of CellTiter-Glo reagent was added to each well. The cell plate was shaken on an orbital shaker for 5 min to lyse the cells and then let stand at room temperature for 20 min to stabilize the luminescence signals, and then the luminescence values were read. The data were analyzed using the GraphPad Prism 5.0 software. Dose-response curves were fit to the data using nonlinear S-curve regression, and IC50 was calculated from the curves.

[2] = test system: Ba/F3 RET-M918T cells; assay: Ba/F3 RET-M918T cell inhibition (CellTiter-Glo); type: cell-based; conditions: Mus musculus, BaF3, 72 h
Protocol: as §1

[3] = test system: Ba/F3 KIF5B-RET-G810R cells; assay: Ba/F3 KIF5B-RET-G810R cell inhibition (CellTiter-Glo); type: cell-based; conditions: Mus musculus, BaF3, 72 h, maximum concentration 1000 nM
Protocol: as §1

[4] = test system: Ba/F3 KIF5B-RET-V804M cells; assay: Ba/F3 KIF5B-RET-V804M cell inhibition (CellTiter-Glo); type: cell-based; conditions: Mus musculus, BaF3, 72 h
Protocol: as §1

[5] = target: T1, hERG potassium channel (Homo sapiens (Human), UniProt Q12809)
T1 sequence (Q12809 whole entry): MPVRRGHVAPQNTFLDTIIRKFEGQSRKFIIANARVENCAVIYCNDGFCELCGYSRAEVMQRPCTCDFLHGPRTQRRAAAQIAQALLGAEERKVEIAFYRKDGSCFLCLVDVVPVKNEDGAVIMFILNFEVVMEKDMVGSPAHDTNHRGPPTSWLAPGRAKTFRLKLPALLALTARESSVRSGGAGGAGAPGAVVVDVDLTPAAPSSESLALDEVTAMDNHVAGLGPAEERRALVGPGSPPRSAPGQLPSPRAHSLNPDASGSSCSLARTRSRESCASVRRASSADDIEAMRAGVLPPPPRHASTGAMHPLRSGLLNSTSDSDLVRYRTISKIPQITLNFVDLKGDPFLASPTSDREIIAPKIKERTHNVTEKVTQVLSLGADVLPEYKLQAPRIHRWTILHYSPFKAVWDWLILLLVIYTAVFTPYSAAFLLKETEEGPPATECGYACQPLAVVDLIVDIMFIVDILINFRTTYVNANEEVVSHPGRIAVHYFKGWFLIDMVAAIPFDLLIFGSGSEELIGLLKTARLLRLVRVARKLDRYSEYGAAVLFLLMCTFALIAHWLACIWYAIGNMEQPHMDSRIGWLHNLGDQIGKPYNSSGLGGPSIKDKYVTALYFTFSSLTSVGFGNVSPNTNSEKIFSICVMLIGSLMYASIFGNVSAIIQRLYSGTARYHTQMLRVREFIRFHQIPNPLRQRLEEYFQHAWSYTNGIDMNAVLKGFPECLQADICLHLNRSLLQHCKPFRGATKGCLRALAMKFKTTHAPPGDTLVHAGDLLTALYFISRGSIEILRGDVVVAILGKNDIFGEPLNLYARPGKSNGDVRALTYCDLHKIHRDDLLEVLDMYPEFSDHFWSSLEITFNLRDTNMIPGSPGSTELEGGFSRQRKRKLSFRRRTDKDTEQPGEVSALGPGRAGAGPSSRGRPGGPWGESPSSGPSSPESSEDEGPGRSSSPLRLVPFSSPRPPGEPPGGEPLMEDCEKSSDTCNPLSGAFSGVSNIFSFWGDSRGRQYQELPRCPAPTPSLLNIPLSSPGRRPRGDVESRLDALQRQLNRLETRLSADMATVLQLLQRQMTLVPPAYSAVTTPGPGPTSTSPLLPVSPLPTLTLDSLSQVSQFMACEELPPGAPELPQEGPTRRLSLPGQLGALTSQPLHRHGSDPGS

[6] = in vitro; conditions: human, microsomes; for microsomal CLint at 1 µM: CLint (μL/min/mg); for half-life at 1 µM: T1/2 (min)
[7] = Metabolic stability in human liver microsomes
[8] = target: T1, hERG potassium channel; assay: Inhibition of hERG potassium channel, whole-cell patch clamp in HEK293 cells
[9] = target: CCDC6-RET (Homo sapiens (Human), UniProt P07949+Q16204); assay: HTRF kinase activity assay, CCDC6-RET; type: biochemical; conditions: 1 μM ATP
Chain of CCDC6-RET (Homo sapiens (Human), UniProt P07949+Q16204) (P07949 other isoform, or with tags, fused parts or gaps): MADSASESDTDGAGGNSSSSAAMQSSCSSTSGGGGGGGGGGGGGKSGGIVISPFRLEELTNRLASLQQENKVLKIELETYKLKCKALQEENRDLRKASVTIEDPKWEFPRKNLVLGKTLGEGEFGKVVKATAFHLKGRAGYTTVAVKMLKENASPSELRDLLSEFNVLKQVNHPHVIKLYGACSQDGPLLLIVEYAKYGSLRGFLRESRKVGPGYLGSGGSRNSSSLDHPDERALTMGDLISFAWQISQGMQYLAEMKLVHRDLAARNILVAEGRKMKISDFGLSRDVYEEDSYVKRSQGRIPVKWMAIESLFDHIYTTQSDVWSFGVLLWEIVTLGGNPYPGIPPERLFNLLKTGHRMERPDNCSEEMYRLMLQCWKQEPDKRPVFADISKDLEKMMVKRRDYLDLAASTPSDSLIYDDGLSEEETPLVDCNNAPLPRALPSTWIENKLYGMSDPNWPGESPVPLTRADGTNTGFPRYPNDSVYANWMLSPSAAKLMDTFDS

[10] = target: RET wild type (RET WT) (Homo sapiens (Human), UniProt P07949); assay: HTRF kinase activity assay, RET wild type; type: biochemical; conditions: 1 μM ATP
Chain of RET wild type (RET WT) (P07949 29-1114): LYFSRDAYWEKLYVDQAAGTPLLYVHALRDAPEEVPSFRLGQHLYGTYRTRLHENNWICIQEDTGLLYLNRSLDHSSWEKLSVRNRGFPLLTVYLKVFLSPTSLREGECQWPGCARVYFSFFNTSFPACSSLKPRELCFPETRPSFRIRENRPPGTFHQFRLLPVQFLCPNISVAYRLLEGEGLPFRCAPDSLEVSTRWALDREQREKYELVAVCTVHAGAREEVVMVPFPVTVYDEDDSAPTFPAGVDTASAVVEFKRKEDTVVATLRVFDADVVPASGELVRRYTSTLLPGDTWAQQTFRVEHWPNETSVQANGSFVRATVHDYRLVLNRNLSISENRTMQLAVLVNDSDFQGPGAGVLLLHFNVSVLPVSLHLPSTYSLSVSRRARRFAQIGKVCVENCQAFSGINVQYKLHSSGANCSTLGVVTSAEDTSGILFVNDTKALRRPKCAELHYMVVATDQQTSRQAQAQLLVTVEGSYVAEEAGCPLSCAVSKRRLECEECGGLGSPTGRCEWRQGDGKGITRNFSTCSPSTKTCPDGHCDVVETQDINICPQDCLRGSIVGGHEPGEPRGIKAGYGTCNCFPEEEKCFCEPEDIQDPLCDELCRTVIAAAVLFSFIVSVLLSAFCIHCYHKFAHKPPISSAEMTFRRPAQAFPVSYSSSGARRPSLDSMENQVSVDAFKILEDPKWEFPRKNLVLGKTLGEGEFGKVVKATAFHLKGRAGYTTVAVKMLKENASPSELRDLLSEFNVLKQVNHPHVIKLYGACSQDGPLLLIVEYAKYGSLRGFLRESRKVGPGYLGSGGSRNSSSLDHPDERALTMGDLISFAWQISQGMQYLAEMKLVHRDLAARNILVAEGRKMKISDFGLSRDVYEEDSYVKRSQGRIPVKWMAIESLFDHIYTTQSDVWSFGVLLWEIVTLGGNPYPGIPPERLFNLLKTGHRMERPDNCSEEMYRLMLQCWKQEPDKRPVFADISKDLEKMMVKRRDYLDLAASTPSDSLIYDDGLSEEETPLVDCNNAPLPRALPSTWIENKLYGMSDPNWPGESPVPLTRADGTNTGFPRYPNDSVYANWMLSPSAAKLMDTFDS

[11] = target: RET (M918T) (Homo sapiens (Human), UniProt P07949, M918T); assay: HTRF kinase activity assay, RET (M918T); type: biochemical; conditions: 10 μM ATP
Chain of RET (M918T) (P07949 29-1114 M918T): as the sequence (P07949 29-1114) above, with M890T counted along it

[12] = target: RET (V804M) (Homo sapiens (Human), UniProt P07949, V804M); assay: HTRF kinase activity assay, RET (V804M); type: biochemical; conditions: 10 μM ATP
Chain of RET (V804M) (P07949 29-1114 V804M): as the sequence (P07949 29-1114) above, with V776M counted along it

[13] = target: KDR (VEGFR2) (Homo sapiens (Human), UniProt P35968); assay: HTRF kinase activity assay, KDR; type: biochemical; conditions: 20 μM ATP
Chain of KDR (VEGFR2) (P35968 20-1356): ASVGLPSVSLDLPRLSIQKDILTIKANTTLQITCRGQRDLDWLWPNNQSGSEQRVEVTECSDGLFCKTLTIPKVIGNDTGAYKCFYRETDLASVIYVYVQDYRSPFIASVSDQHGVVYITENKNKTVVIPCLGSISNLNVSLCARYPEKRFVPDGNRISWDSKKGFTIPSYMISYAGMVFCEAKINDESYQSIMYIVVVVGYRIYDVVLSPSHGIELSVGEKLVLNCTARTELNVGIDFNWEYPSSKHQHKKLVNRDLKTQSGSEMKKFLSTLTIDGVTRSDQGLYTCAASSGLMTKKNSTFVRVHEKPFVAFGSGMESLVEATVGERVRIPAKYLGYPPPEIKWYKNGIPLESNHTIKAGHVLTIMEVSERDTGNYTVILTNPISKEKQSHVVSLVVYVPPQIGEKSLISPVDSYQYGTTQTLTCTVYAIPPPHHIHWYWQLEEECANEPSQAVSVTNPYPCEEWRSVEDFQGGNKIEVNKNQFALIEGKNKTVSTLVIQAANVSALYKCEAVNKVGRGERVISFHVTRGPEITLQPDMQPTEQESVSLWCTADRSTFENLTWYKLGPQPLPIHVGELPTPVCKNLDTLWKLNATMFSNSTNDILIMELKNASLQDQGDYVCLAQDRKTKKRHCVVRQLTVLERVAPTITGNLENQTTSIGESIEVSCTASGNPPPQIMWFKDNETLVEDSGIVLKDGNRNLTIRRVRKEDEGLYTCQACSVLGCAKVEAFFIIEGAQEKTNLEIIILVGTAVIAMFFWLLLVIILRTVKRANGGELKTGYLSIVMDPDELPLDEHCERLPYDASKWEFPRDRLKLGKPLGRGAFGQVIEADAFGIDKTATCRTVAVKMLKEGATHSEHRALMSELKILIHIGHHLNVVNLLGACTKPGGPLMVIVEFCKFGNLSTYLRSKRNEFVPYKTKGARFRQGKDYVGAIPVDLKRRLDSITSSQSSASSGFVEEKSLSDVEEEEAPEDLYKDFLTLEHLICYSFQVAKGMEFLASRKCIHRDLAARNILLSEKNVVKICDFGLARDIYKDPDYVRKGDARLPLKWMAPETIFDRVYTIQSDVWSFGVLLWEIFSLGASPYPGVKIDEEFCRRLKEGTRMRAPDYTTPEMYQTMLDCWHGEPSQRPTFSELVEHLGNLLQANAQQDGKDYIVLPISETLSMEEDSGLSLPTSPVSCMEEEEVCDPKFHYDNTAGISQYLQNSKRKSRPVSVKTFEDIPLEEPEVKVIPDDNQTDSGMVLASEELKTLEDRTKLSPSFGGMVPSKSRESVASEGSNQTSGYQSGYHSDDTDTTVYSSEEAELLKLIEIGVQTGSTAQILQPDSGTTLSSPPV

[14] = target: CCDC6-RET (Homo sapiens (Human), UniProt P07949); assay: HTRF kinase activity assay, CCDC6-RET; type: biochemical; conditions: 1 μM ATP
Chain of CCDC6-RET (Homo sapiens (Human), UniProt P07949) (P07949 other isoform, or with tags, fused parts or gaps): as the sequence (P07949 other isoform, or with tags, fused parts or gaps) above

[15] = read-out: IC50 for inhibition of hERG potassium channel, HEK293 cells stably expressing hERG, patch clamp
[16] = T1/2 (min), human liver microsomes, NADPH, Table 3
[17] = CLint (μL/min/mg), human liver microsomes, NADPH, Table 3

Structure (SMILES) | IC50 [1] [µM] | IC50 [10] [µM] | IC50 [11] [µM] | IC50 [12] [µM] | IC50 [13] [µM] | also measured
CO[C@]1(C(=O)N[C@@H](C)c2ccc(-n3cc(F)cn3)nc2)CC[C@H](c2nc(C)cc(Nc3cc(C)[nH]n3)n2)CC1 [BLU-667, reference compound] | 0.0114 | – | – | – | – | IC50 [2]: 0.0129 µM; IC50 [3]: 0.481 µM; IC50 [4]: 0.0111 µM
COc1ccc(CN2C3CC2CN(c2ccc(-c4cc(N5CC6CC(C5)N6)cn5ncc(C#N)c45)cn2)C3)cn1 [Compound 16] | – | – | – | – | – | IC50 [5]: 2.06 µM; microsomal CLint at 1 µM [6]: 8.8 µL/min/mg; half-life at 1 µM [6]: 158 min
COc1ccc(CN2C3CC2CN(c2ccc(-c4cc(N5CC6CC(C5)N6C)cn5ncc(C#N)c45)cn2)C3)cn1 [Compound 17] | – | – | – | – | – | IC50 [5]: 1.31 µM; microsomal CLint at 1 µM [6]: 36.4 µL/min/mg; half-life at 1 µM [6]: 38.1 min
COc1ccc(CN2C3CC2CN(c2ccc(-c4cc(N5CCP(C)(=O)CC5)cn5ncc(C#N)c45)cn2)C3)cn1 [Compound 20] | – | – | – | – | – | half-life at 1 µM [7]: 231 min; microsomal CLint at 1 µM [7]: 6 µL/min/mg; IC50 [8, 15]: 22.2 µM
COc1ccc(CN2CCC(Nc3ccc(-c4cc(-c5cnn(C)c5)cn5ncc(C#N)c45)cn3)CC2)cn1 [Compound 21] | – | 0.045 | 0.08 | 0.188 | 0.109 | IC50 [9]: 0.0605 µM
COc1ccc(CN2CCCN(c3ccc(-c4cc(-c5cnn(C)c5)cn5ncc(C#N)c45)cn3)CC2)cn1 [Compound 32] | – | 0.00211 | 0.00173 | 0.0048 | 0.0391 | IC50 [9]: 0.00313 µM
COc1ccc(CN(C)C2CCCCC2N(C)c2ccc(-c3cc(-c4cnn(C)c4)cn4ncc(C#N)c34)cn2)cn1 (stereo not shown) [Compound 34] | – | 0.0358 | 0.0978 | 0.21 | 0.311 | IC50 [9]: 0.0716 µM
COc1ccc(CN2C3CC2CN(c2ccc(-c4cc(-c5cnn6c5CCC6)cn5ncc(C#N)c45)cn2)C3)cn1 [Compound 51] | – | 0.00461 | 0.0039 | 0.00716 | 0.052 | IC50 [9]: 0.00215 µM
COc1ccc(CN2C3CC2CN(c2ccc(-c4cc(-c5cc6n(n5)CCC6)cn5ncc(C#N)c45)cn2)C3)cn1 [Compound 57] | – | – | – | – | – | half-life at 1 µM [7, 16]: 19.9 min; microsomal CLint at 1 µM [6]: 69.8 µL/min/mg
COc1ccc(CN2CCN(c3ccc(-c4cc(-c5cc6n(n5)CCC6)cn5ncc(C#N)c45)cn3)CC2)cn1 [Compound 58] | – | 0.00498 | 0.00952 | 0.0193 | 0.134 | –
COc1ccc(CN2C3CC2CN(c2ccc(-c4cc(N5CCOCC5)cn5ncc(C#N)c45)cn2)C3)cn1 [Compound 65] | 0.00806 | – | – | – | – | microsomal CLint at 1 µM [7, 17]: 44.8 µL/min/mg; half-life at 1 µM [7, 16]: 30.9 min; IC50 [2]: 0.0239 µM; IC50 [4]: 0.0586 µM; IC50 [8, 15]: 2.72 µM
COc1ccc(CN2C3CC2CN(c2ccc(-c4cc(C#CC(C)(C)O)cn5ncc(C#N)c45)cn2)C3)cn1 [Compound 66] | 0.00917 | 0.00166 | 0.00205 | 0.00769 | 0.123 | IC50 [14]: 0.00113 µM
COc1ccc(CN2C3CC2CN(c2ccc(-c4cc(N5CCC(O)C5)cn5ncc(C#N)c45)cn2)C3)cn1 (stereo not shown) [Compound 67] | 0.00358 | 0.00079 | 0.00075 | 0.00109 | 0.0246 | –
COc1ccc(CN2C3CC2CN(c2ccc(-c4cc(N5CCC(OC)C5)cn5ncc(C#N)c45)cn2)C3)cn1 (stereo not shown) [Compound 68] | 0.002 | 0.0013 | 0.00847 | 0.00537 | 0.0166 | IC50 [14]: 0.00254 µM
COc1ccc(CN2C3CC2CN(c2ccc(-c4cc(N5CCOCC5=O)cn5ncc(C#N)c45)cn2)C3)cn1 [Compound 69] | – | 0.0186 | 0.0223 | 0.0385 | 0.755 | IC50 [14]: 0.012 µM
COc1ccc(CN2C3CC2CN(c2ccc(-c4cc(N5CCC(C)(O)C5)cn5ncc(C#N)c45)cn2)C3)cn1 (stereo not shown) [Compound 70] | 0.00099 | 0.00117 | 0.00162 | 0.00101 | 0.0239 | microsomal CLint at 1 µM [7, 17]: 50.6 µL/min/mg; half-life at 1 µM [7, 16]: 27.4 min; IC50 [14]: 0.00102 µM; IC50 [2]: 0.00115 µM; IC50 [3]: 0.194 µM; IC50 [4]: 0.0119 µM; IC50 [8]: 4.74 µM
COc1ccc(CN2C3CC2CN(c2ccc(-c4cc(NCC(C)(C)O)cn5ncc(C#N)c45)cn2)C3)cn1 [Compound 78] | 0.0136 | – | – | – | – | –
COc1ccc(CN2C3CC2CN(c2ccc(-c4cc(N5CCCC(O)C5)cn5ncc(C#N)c45)cn2)C3)cn1 (stereo not shown) [Compound 82] | 0.0171 | – | – | – | – | –
COc1ccc(CN2C3CC2CN(c2ccc(-c4cc(N5CC(C)(O)C5)cn5ncc(C#N)c45)cn2)C3)cn1 [Compound 86] | 0.00366 | – | – | – | – | –
COc1ccc(CN2C3CC2CN(c2ccc(-c4cc(N5CCN(C)CC5)cn5ncc(C#N)c45)cn2)C3)cn1 [Compound 87] | 0.0118 | – | – | – | – | microsomal CLint at 1 µM [7, 17]: 35.8 µL/min/mg; half-life at 1 µM [7, 16]: 38.7 min; IC50 [2]: 0.0135 µM; IC50 [3]: 0.431 µM; IC50 [4]: 0.116 µM; IC50 [8, 15]: 2.13 µM
COc1ccc(CN2C3CC2CN(c2ccc(-c4cc(N5CCN(C)C(=O)C5)cn5ncc(C#N)c45)cn2)C3)cn1 [Compound 89] | 0.024 | – | – | – | – | IC50 [2]: 0.0116 µM; IC50 [3]: 0.959 µM; IC50 [4]: 0.0953 µM; IC50 [8, 15]: 7.17 µM
COc1ccc(CN2C3CC2CN(c2ccc(-c4cc(N5CCNCC5)cn5ncc(C#N)c45)cn2)C3)cn1 [Compound 96] | 0.0418 | – | – | – | – | IC50 [2]: 0.0451 µM; IC50 [4]: 0.196 µM
[2H]C([2H])([2H])N1CCN(c2cc(-c3ccc(N4CC5CC(C4)[N+]5([O-])Cc4ccc(OC)nc4)nc3)c3c(C#N)cnn3c2)CC1 (stereo not shown) [Compound 99] | – | 0.0566 | – | – | – | –
[2H]C([2H])([2H])[N+]1([O-])CCN(c2cc(-c3ccc(N4CC5CC(C4)N5Cc4ccc(OC)nc4)nc3)c3c(C#N)cnn3c2)CC1 [Compound 101] | – | 0.0025 | – | – | 0.215 | –
